Measurements taken from patent US9456619B1, “Control of caloric intake” (priority 2000, dated 2016).

How the values were obtained:
[1] = rats, liquid diet ad libitum; effect appeared after first week; cited from earlier work
[2] = flavored liquid food, ad libitum; cited from earlier work
[3] = Source text: To find out, a few days later I began drinking much more water than usual.
I was already measuring my weight regularly. I used three scales, to ensure that any weight change was not due to a changing scale.

For `O=C1NS(=O)(=O)c2ccccc21` [saccharin], the “weight gain versus same food without saccharin” value [1] is listed as “gained more weight”.
For `CC(=O)OC[C@H]1O[C@@](COC(C)=O)(O[C@H]2O[C@H](COC(C)=O)[C@@H](OC(C)=O)[C@H](OC(C)=O)[C@H]2OC(C)=O)[C@@H](OC(C)=O)[C@@H]1OC(C)=O` [sucrose octaacetate], the “weight gain versus rats eating unflavored solid food” value [2] is listed as “gained more weight”.
With `O` [water] the weight rise ([3]; after reducing water intake from 5 to 3 liters/day) was “about 0.7 kg” and the weight lost ([3]; water intake raised to 5 liters/day, over two weeks before weight stabilized) was “about 2.8 kg”.
